The target in data set [1] is T1, recombinant Lotus pantothenate synthetase (Lotus japonicus, UniProt O24035). Kind of data set: Activity of recombinant Lotus pantothenate synthetase in the presence of potential effectors. It counts as biochemical. Also noted: the processed recombinant protein (3-proline through 308-leucine) has a theoretical mass of 34,037.7 Da; made in house; host or cells: E. coli AT1371 (panC) transformed with pSKL. Conditions: for Final activity [%]: effector 1 mM, pantoate 0.1 mM, β-alanine 1.0 mM, % of activity without effector. The procedure:
2. The preferred assay mixture to measure the pyrophosphate liberated in the PS reaction after its conversion with inorganic pyrophosphatase to inorganic phosphate comprises 100 μmol Tris.HCl (pH 8.0), 10 μmol MgSO4, 5 μmol ATP, 10 μmol […], […], 1.0 unit […] After a suitable incubation period the PS reaction is terminated either
(§1) a) by the addition of 100 μlof a reagent mixture comprising 62.3 µg malachite green hydrochloride, 1.9 mg ammoniumheptamolybdate and 0.5% (v/v) of a suitable detergent (for example Triton X-100, Tween-80 or Tergitol NPX) in 1.88 N hydrochloric acid. The resulting colour complex is stabilised by the addition after 1 minute of 50 μl of a 26% (w/v) solution of trisodium citrate dihydrate in water and after an additional 45 minutes incubation at room temperature the intensity of the colour complex is determined by measuring the extinction at 620 nm. The amount of inorganic phosphate liberated in the PS reaction is determined by reference to a standard curve generated from suitable amounts of inorganic phosphate by using the difference of extinction at 620 nm between a complete PS assay mixture and a PS assay mixture lacking pantoate. Since there are 2 molecules of inorganic phosphate liberated for every molecule of pyrophosphate formed in the PS reaction, one unit of PS activity is defined as the amount of enzyme producing 2 nmoles of inorganic phosphate per minute, and specific activity is expressed as units per milligram of protein; or
Among these compounds are the intermediates of pantothenate biosynthesis as well as coenzyme A. As coenzyme A plays a prominent role in fatty acid synthesis and degradation, various acyl forms of coenzyme A and free fatty acids were also included. […] Table 7 lists the compounds tried and their effect on PS activity which is expressed percentage of activity in an assay without additions.

For data set [2], the target named is T2, recombinant L. japonicus pantothenate synthetase (Lotus japonicus, UniProt O24035).
T2 construct: the processed recombinant protein (3-proline through 308-leucine) has a theoretical mass of 34,037.7 Da; made in house; host or cells: E. coli AT1371 (panC) transformed with pSKL
T2 sequence (O24035 3-308): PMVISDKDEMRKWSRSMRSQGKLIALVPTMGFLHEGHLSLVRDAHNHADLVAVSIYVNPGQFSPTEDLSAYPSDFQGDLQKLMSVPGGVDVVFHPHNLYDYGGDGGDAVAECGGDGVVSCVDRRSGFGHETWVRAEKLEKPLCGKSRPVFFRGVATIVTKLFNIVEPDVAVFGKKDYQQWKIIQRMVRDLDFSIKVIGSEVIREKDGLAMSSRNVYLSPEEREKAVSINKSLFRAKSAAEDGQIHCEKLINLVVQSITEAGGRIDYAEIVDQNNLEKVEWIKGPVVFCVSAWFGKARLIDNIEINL
Kind of data set: Substrate specificity of recombinant L. japonicus pantothenate synthetase. It counts as biochemical. Particulars: for yield (%): relative to standard assay; for inhibition: analogue at 10-fold excess over pantoate. The procedure:
(§2) 2. The preferred assay mixture to measure the pyrophosphate liberated in the PS reaction after its conversion with inorganic pyrophosphatase to inorganic phosphate comprises 100 μmol Tris.HCl (pH 8.0), 10 μmol MgSO4, 5 μmol ATP, 10 μmol […], 0.5 μmol pantoate, 1.0 unit yeast inorganic pyrophosphatase and pantothenate synthetase in a total volume of 100 μl. After a suitable incubation period the PS reaction is terminated either
as §1, with “protein; or […]” for “protein; or”

A further data set concerns the target purified E. coli PS (Escherichia coli, UniProt P31663). Particulars: cited from earlier work.
The target of data set [3] is T1, recombinant Lotus pantothenate synthetase. Kind of data set: Steady state kinetics of recombinant Lotus pantothenate synthetase. The procedure:
as §2, §1
Km and Vmax constants for pantoate and […] were determined by measuring the effect of substrate concentration on the reaction rate.

Substrate in data set [4]: CC(C)(CO)[C@@H](O)C(=O)O
Nature of the data set: purified protein, by the assay type. Particulars: pH 8.0.

Substrate in data set [5]: NCCC(=O)O
Kind of data set: purified protein, by the assay type. Conditions: pantoate at 0.5 mM const., pH 8.0.

[6] abbreviates: analogue 1.0 mM added to pantoate 0.1 mM and β-alanine 1 mM.
[7] abbreviates: analogue 1.0 mM in place of pantoate, β-alanine 1 mM.
Where [8] appears, read: analogue 10 mM in place of pantoate, β-alanine 1 mM.
Setting [9] is: other: Eadie-Hofstee (EH), β-alanine at 20 mM const.
Setting [10] is: other: Lineweaver-Burk (LB), β-alanine at 20 mM const.
Setting [11] is: other: fit of rate equation for uncompetitive substrate inhibition.

Broadly, the kcat is the number of substrate molecules converted per active site and unit of time at saturation.

Some results are limits rather than exact numbers.

Sequence of purified E. coli PS (P31663 whole entry): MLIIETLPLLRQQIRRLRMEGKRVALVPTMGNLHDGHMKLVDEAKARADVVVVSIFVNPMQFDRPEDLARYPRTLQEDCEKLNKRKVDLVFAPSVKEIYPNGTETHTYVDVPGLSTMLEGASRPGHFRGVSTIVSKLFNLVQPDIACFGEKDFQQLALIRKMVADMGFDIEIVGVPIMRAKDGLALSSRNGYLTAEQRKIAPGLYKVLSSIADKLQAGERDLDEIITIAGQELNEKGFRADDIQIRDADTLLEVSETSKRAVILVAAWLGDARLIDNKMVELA

As for `CC(C)(COP(=O)(O)OP(=O)(O)OC[C@H]1O[C@@H](n2cnc3c(N)ncnc32)[C@H](O)[C@@H]1OP(=O)(O)O)[C@@H](O)C(=O)NCCC(=O)NCCSC(=O)CC(=O)O` [Malonyl-coA], the activity at 100 µM in data set [1] (read-out: Final activity [%]) was 92%.
For `CC1(C)COC(=O)[C@@H]1O` [Pantoyl-lactone, pantoyl-lactone], in data set [2], the “activity as substrate in the place of pantoate” value was “not active as substrates”. Moreover, the “activity (units)” value is 11.53 units in data set [2] (setting [6]), less than 0.1 units in data set [2] (setting [7]) and 0.15 units in data set [2] (setting [8]). The “yield (%)” value in data set [2] (setting [6]) is 92%; in data set [2] (setting [7]), less than 1%; in data set [2] (setting [8]), 1%. For the same molecule, the inhibition entry in data set [2] was “did not effect significant inhibition”. The activity toward pantoyl-lactone result on purified E. coli PS is “no activity”. For the same molecule, in data set [1], the “Final activity [%]” value is 92%.
As for `CC(C)(CO)[C@@H](O)C(=O)NCCC(=O)O` [Pantothenate], the activity at 1000 µM in data set [1] (read-out: Final activity [%]) was determined as 98%.
Take `CCCCCC/C=C\CCCCCCCC(=O)SCCNC(=O)CCNC(=O)[C@H](O)C(C)(C)COP(=O)(O)OP(=O)(O)OC[C@H]1O[C@@H](n2cnc3c(N)ncnc32)[C@H](O)[C@@H]1OP(=O)(O)O` [Palmitoleoyl-coA]: the activity at 22 µM in data set [1] (read-out: Final activity [%]) stood at 114%.
For `O=P(O)(O)OP(=O)(O)O` [Pyrophosphate], the “Final activity [%]” value in data set [1] amounted to 78%.
As to `CCCCCC/C=C\CCCCCCCC(=O)O` [Palmitoleic acid], in data set [1] (read-out: Final activity [%]), the activity at 20 µM was 116% and the activity at 100 µM turned out to be 100%.
Consider `CC(=O)SCCNC(=O)CCNC(=O)[C@H](O)C(C)(C)COP(=O)(O)OP(=O)(O)OC[C@H]1O[C@@H](n2cnc3c(N)ncnc32)[C@H](O)[C@@H]1OP(=O)(O)O` [Acetyl-coA], for which the activity at 100 µM in data set [1] (read-out: Final activity [%]) is 93%.
On to `CCCCCCCC/C=C\CCCCCCCC(=O)SCCNC(=O)CCNC(=O)[C@H](O)C(C)(C)COP(=O)(O)OP(=O)(O)OC[C@H]1O[C@@H](n2cnc3c(N)ncnc32)[C@H](O)[C@@H]1OP(=O)(O)O` [Oleoyl-coA], for which the activity at 24 µM in data set [1] (read-out: Final activity [%]) stood at 108%.
In the case of `CC(C)C(=O)C(=O)O` [a-KIVA], the “Final activity [%]” value in data set [1] worked out at 89%.
Take `CC(C)(CO)C(=O)C(=O)O` [Ketopantoate, ketopantoate]: in data set [2], the “activity as substrate in the place of pantoate” value is “not active as substrates” and the inhibition result is “did not effect significant inhibition”. Moreover, in data set [2] (setting [6]), the “activity (units)” value amounted to 12.18 units and the “yield (%)” value amounted to 97%. In data set [2] (setting [7]), the “activity (units)” value is listed as 0 units and the “yield (%)” value was determined as 0%. In addition, in data set [2] (setting [8]), the “activity (units)” value amounted to 0 units and the “yield (%)” value was 0%. Also, the “Final activity [%]” value in data set [1] is on record as 97%.
With `CC(C)(COP(=O)(O)OP(=O)(O)OC[C@H]1O[C@@H](n2cnc3c(N)ncnc32)[C@H](O)[C@@H]1OP(=O)(O)O)[C@@H](O)C(=O)NCCC(=O)NCCS` [CoenzymeA], in data set [1] (read-out: Final activity [%]), the activity at 100 µM was 100%, the activity at 200 µM was 106% and the activity at 1000 µM came to 109%.
`CC(C)(CO)[C@@H](O)C(=O)O` [Pantoate, (R)-pantoate]: the optimal pantoate concentration in data set [3] (calculated from rate equation with fitted KS and K′S) is 470 ± 30 µM. Further, the “K′S” value in data set [3] (fit of rate equation for uncompetitive substrate inhibition) came to 5.33 ± 0.34 mM. Besides, the kcat in data set [3] (from Vmax of the uncompetitive substrate inhibition fit) is 0.625 ± 0.011 s⁻¹. In data set [3] (substrate inhibition of Lotus PS), the “pantoate concentration at which substrate inhibition becomes significant” value is not below 400 µM.
As for `CCCCCCCCCCCCCCCC(=O)O` [Palmitic acid], in data set [1] (read-out: Final activity [%]), the activity at 2 µM is 133%, the activity at 15 µM was 135% and the activity at 60 µM turned out to be 115%.

B1: recombinant Lotus pantothenate synthetase (Lotus japonicus) (protein)
chain: T2 sequence (O24035 3-308)
For B1, the Km in data set [4] (setting [9]) is 44 (EH) μM; in data set [4] (setting [10]), 45 (LB) μM; in data set [4] (setting [11]), 42 ± 2 µM; in data set [5] (other: Eadie-Hofstee (EH)), 986 (EH) μM; in data set [5] (other: Lineweaver-Burk (LB)), 990 (LB) μM. The Vmax is recorded as 10.98 (EH) in data set [4] (setting [9]); 11.36 (LB) in data set [4] (setting [10]); 11.03±0.19 units in data set [4] (setting [11]); 9.51 (EH) in data set [5] (other: Eadie-Hofstee (EH)); 9.52 (LB) in data set [5] (other: Lineweaver-Burk (LB)). Further, the kcat was found to be 0.63 s⁻¹ in data set [4] (setting [10]) and 0.54 s⁻¹ in data set [5] (other: Lineweaver-Burk (LB)).

The record behind these values is US6630331B1, “Herbicides test method” (Hoechst Schering AgrEvo GmbH, priority 1997, dated 2003).
